Reference: US6426076B1 (PASCO Pharmazeutische Präparate GmbH, priority 1997, dated 2002)

Legend:
[1] = test system: normal tissue (skin and bone marrow); assay: Adjuvant vitamin C infusions with radiation therapy: radiation tolerance of normal tissue; assay type: in vivo
[2] = Combination therapy of cytostatics with vitamin C: loss of cytostatic effect; settings: any of the cytostatics investigated
Source text: The side effects of chemotherapy are also attributed to an increase in the levels of free radicals in many tissues.

skin metastases = assay: Case 1: vitamin C infusions in a patient with breast carcinoma, local recurrences and skin metastases; assay type: in vivo, human; settings: vitamin C infusions of 7.5 g per infusion
cancer patients [3] = settings: intravenous 0.5 to 10 g/day, then oral 10 to 30 g, cited from earlier work
[4] = test system: metastatic breast cancer and massive bone metastases; assay: Case 2: vitamin C infusions in a patient with metastatic breast cancer and bone metastases, with concomitant chemotherapy; assay type: in vivo, human; settings: ten infusions of 7.5 g vitamin C each
terminal cancer patients = settings: 100 terminal cancer patients, 10 g vitamin C orally each day; cited from earlier work
normal cell lines = settings: in the concentrations cytotoxic to tumor cell lines; cited from earlier work
cancer patients [5] = settings: high-dose vitamin C therapy, case reports; cited from earlier work
tumor cell lines = settings: in certain concentrations; cited from earlier work
[6] = Animal experiments: combination with adriamycin, survival time
[7] = intravenous infusion of 7.5 g vitamin C before and after each radiation

O=C1O[C@H]([C@@H](O)CO)C(O)=C1O [vitamin C, ascorbic acid]
radioprotective effect on bone marrow [1, 7]: greatly improved | skin reactions accompanying radiation [1, 7]: can be prevented | increase of radiation tolerance of normal tissue ([1]; vitamin C infusions, without increasing the radiation dose required to remove the tumors): about 20% | loss of effect of the cytostatics [2]: no loss of effect | comparison with local-acting cytostatic administered previously (skin metastases): superior to the local-acting cytostatic administered previously | effect on skin metastases (skin metastases): remission of the skin metastases | general well-being and Karnofsky scale (cancer patients [3]): improvement in general well-being and the Karnofsky scale | pain in skeletal metastasis (cancer patients [3]): relief from pain in cases of skeletal metastasis | protein tumor markers in the serum (cancer patients [3]): decline in protein tumor markers in the serum | malignant pleural effusions and pulmonary metastases (cancer patients [3]; in favorable cases): absorption of malignant pleural effusions and a reduction in the size of pulmonary metastases | pain caused by the bone metastases [4]: great relief from the pain | blood picture (leukocytes and platelets) ([4]; concomitant chemotherapy): definite improvement in the blood picture (stabilization of leukocytes and platelets) | survival time versus control group (terminal cancer patients): longer than that of the control group | growth of normal cell lines (normal cell lines): not influenced | general condition and remissions (cancer patients [5]): improvement in general condition and spontaneous remissions | effect on tumor cell lines (tumor cell lines): cytotoxic effect | survival time [6]: prolonged survival time
